The source of these data is ChEMBL document CHEMBL4052808, “Novel anti-prostate cancer scaffold identified by the combination of in silico and cell-based assays targeting the PI3K-AKT-mTOR pathway” (Bioorg Med Chem Lett, 2017).

Activity calls are given as the source filed them. No cut-off for these calls is given here.

One data set has as its system DU-145. Nature of the data set: Cytotoxicity against human DU145 cells by MTT assay. The class given is functional, cell-based.
The next data set has as its system PC-3. Nature of the data set: Cytotoxicity against human PC3 cells by MTT assay. Type of data set: functional, cell-based. On the technique in general: Tetrazolium assays rely on reduction of a dye to a coloured formazan, in cell work by metabolically active cells.
Data set [1] is described as follows: Cytotoxicity against mouse Balb/c 3T3 clone A31 cells assessed as cell viability at 100 uM by MTT assay relative to control. Type of data set: cell-based. The following applies: read-out: Activity.
Data set [2] can be described thus: Selectivity index, ratio of cytotoxic concentration against mouse Balb/c 3T3 clone A31 cells to EC50 for human PC3 cells. The class given is functional.
Data set [3] is filed under the species Homo sapiens. Nature of the data set: Inhibition of […] pathway in human PC3 cells assessed as phosphorylation of AKT at ser473 residues at 100 uM after 1 hr by PerCP probe based flow cytometric analysis (reference value: 43.92%). Type of data set: cell-based.
For data set [4], the species on record is Homo sapiens. Nature of the data set: Inhibition of […] pathway in human PC3 cells assessed as phosphorylation of S6 at ser235 residues at 100 uM after 1 hr by alexa fluor 488 probe based flow cytometric analysis (reference value: 48.58%). The class given is cell-based. On the technique in general: In flow cytometry, cells or beads pass a laser one at a time.

The EC50 is the concentration at which the effect is half-maximal. A high value points to lower potency in that assay. The inhibition is how much of the control response was suppressed. With `Nc1ccc(C(=O)N2CCC(Cc3ccc(F)cc3)CC2)cn1`, in the data set with DU-145, the result was inactive. The same compound gave an EC50 in the data set with PC-3 of 75 µM. The viability at 100 µM in data set [1] came to 68.1%. Moreover, the “Selectivity Index” value in data set [2] is given as above 1.33. For the same compound, the values for the inhibition in the data set listed under Homo sapiens [3] and in the data set filed under Homo sapiens [4] were 39.4% and 14%, respectively.
For `Cc1ccccc1SC1CCN(C(=O)c2ccc(N)nc2)CC1`, the outcome in the data set on DU-145 was inactive. The EC50 in the data set on PC-3 was 60.7 µM. The viability at 100 µM in data set [1] was 95.4%. Further, the “Selectivity Index” value in data set [2] was above 1.65. Moreover, the inhibition in the data set listed under Homo sapiens [3] is 34.8%; in the data set listed under Homo sapiens [4], 15.5%.
`CO[C@H]1C[C@@H]2CC[C@@H](C)[C@@](O)(O2)C(=O)C(=O)N2CCCC[C@H]2C(=O)O[C@H]([C@H](C)C[C@@H]2CC[C@@H](O)[C@H](OC)C2)CC(=O)[C@H](C)/C=C(\C)[C@@H](O)[C@@H](OC)C(=O)[C@H](C)C[C@H](C)/C=C/C=C/C=C/1C` [SIROLIMUS] had an EC50 in the data set with PC-3 of 43.1 µM. In addition, the viability at 100 µM in data set [1] stood at 58.3%. Besides, in data set [2], the “Selectivity Index” value was above 2.32. Moreover, the inhibition turned out to be 28.9% in the data set listed under Homo sapiens [3] and 7.24% in the data set listed under Homo sapiens [4].
Consider `COCC[n+]1c2c(n(Cc3cnccn3)c1C)C(=O)c1ccccc1C2=O` [SEPANTRONIUM BROMIDE], for which the values for the EC50 in the data set on DU-145 and with PC-3 were 0.0138 µM and 0.092 µM, respectively.
